Patent US9815841B2, “Compounds” (GLAXOSMITHKLINE INTELLECTUAL PROPERTY DEVELOPMENT LIMITED, priority 2014, dated 2017)

molecular target: T1, purified recombinant 6HIS-Tev-LRRK2 (1326-2527) (Homo sapiens, UniProt Q5S007); assay: Recombinant LRRK2 enzyme peptide substrate TR-FRET assay; type: biochemical; conditions: 60 nM LRRK2 (1326-2527), 1 uM Biotin-longer LRRKtide, 10 uM ATP; read-out: recombinant LRRK2 enzyme peptide substrate TR-FRET assay (pIC50) (converted)
T1 construct: A LRRK2 cDNA encoding residues 1326-2527 was received from Dundee University; made in house; host or cells: Spodoptera frugiperda (Sf9) insect cells, baculovirus (pFB-HTb)
T1 sequence (Q5S007 1326-2527): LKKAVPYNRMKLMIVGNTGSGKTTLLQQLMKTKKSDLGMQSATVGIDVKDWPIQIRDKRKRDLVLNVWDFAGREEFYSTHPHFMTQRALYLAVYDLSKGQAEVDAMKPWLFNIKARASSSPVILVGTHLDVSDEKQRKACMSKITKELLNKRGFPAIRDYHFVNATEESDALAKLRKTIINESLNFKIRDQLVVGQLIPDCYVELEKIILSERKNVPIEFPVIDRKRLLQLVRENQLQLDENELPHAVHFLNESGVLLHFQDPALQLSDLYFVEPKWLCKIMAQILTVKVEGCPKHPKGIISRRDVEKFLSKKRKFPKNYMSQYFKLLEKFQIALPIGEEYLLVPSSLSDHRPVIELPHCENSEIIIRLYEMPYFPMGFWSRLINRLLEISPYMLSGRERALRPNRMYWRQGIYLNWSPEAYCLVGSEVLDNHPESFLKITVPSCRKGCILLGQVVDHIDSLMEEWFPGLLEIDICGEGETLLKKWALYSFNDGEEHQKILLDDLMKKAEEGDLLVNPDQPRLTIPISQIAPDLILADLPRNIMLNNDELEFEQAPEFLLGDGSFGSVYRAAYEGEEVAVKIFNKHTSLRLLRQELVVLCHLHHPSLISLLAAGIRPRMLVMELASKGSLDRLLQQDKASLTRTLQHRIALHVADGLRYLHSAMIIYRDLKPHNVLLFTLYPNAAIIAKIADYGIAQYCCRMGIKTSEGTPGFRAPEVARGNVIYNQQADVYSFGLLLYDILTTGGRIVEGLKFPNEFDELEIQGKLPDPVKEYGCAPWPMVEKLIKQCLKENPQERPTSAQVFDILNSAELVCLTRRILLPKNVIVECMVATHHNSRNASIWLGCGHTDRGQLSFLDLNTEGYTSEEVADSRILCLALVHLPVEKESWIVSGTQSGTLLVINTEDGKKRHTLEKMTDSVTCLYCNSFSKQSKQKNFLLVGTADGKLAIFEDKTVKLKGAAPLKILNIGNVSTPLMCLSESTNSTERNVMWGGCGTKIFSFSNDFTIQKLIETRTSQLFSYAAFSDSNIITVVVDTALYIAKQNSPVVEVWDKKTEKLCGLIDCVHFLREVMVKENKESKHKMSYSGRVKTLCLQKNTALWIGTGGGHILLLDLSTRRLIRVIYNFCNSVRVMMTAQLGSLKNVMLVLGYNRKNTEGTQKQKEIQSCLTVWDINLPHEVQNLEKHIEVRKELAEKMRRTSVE
Procedure: This gene fragment was subcloned into pFB-HTb (Invitrogen) using BamHI and NotI restriction sites. The LRRK2 plasmid was recombined into the baculovirus genome according to the BAC-to-BAC protocol described by Invitrogen. Transfection into Spodoptera frugiperda (Sf9) insect cells was performed using Cellfectin (Invitrogen), according to the manufacturer's protocol to generate P1 and P2 baculovirus stocks.
Sf9 cells were grown in HyClone SFX (Thermo Scientific) growth media at 27° C., 80 rpm in shake flask until of a sufficient volume to inoculate a bioreactor. […] The cells were infected with P2 Baculovirus at a multiplicity of infection (MOI) of 3. The cultivation was continued for a 48 hour expression phase. The infected cells were removed from the growth media by centrifugation at 2500 g using a Sorvall RC 3C Plus centrifuge at 2500 g for 20 minutes. The cell pellet was immediately frozen and subsequently supplied for purification.
A 260 g pellet was allowed to thaw in a water bath at 27° C. with 800 ml lysis buffer/buffer A (50 mm Tris-HCl pH 8.5, 300 mM NaCl, 1 mm DTT, 10% glycerol, 1 ml/L calbiochem complete protease inhibitor cocktail and benzonase (50 ul/800 ml)) before being dounce homogenised on ice using 20 strokes per 100 ml. The suspension was packed in ice and sonicated at 50% amplitude for 3 min 10 sec on/off using a ¾″ probe. The suspension was then centrifuged at 100,000 g for 90 min, at 4° C.
The lysate (700 ml) was decanted from the insoluble pellet and contacted for 3 h at 4 C with 10 ml His bind Ni NTA resin by end over end mixing. The resin was recovered by centrifugation, 3000 g, 5 min at 4 C, and packed in an XK16 column. The column was then washed with 10 column volumes buffer A, 10 column volumes buffer B (buffer A+1M NaCl) and 10 column volumes buffer C (buffer A+20 mM imidazole). The column was then eluted with 15 column volumes buffer D (buffer A+300 mM imidazole) collecting 2 ml fractions. All washes and elution were conducted at 4 ml/min.
Fractions identified by SDS-PAGE as containing protein of interest were pooled and loaded directly onto a 320 ml SEC Superdex 200 pg column that was pre-equilibrated with buffer E (50 mM Tris-HCl pH 8.5, 300 mM NaCl, 10% glycerol, 1 mM DTT). The column was loaded and eluted with 1.2 column volumes buffer E at 2 ml/min collecting 2 ml fractions. Fractions identified by SDS-PAGE as containing protein of interest were tested for activity.
Production of Biotin-Longer LRRKtide
The resulting crude peptide was cleaved from the resin using a 95:2.5:2.5 mix of trifluoroacetic acid:triisopropylsilane:water.
Recombinant LRRK2 Enzyme Peptide Substrate TR-FRET Assay
Assay Protocol • 1. A 10 mM test compound was dissolved in 100% DMSO and serially diluted 1 in 4. 100 nL was then added to a 384 well low volume black plate, excluding columns 6 and 18. 100 nL of DMSO was added to columns 6 and 18 as controls wells. […] Test plates were then incubated for 30 minutes at room temperature. • 3. 3 uL ‘substate solution’ containing 2 uM Biotin-longer LRRKtide peptide substrate and 20 uM ATP was added to all wells of the plate using a multidrop combi dispenser giving a final assay concentration of 1 uM Biotin-longer LRRKtide and 10 uM ATP. Test plates were then incubated for 2 hours at room temperature. (Incubation may vary depending on rate and linearity of reaction with different enzyme batches). • 4. […] Data is analysed using ActivityBase software (IDBS). Dilutions and concentrations of reagents determined on a batch to batch basis

| IC50 [nM] | SMILES |
| --- | --- |
| 7.94 | CCOc1nc(Nc2cc(F)c(C(=O)N3CCOCC3)cc2OC)nc2[nH]ccc12 [Example E2, (4-((4-ethoxy-7H-pyrrolo-[2,3-d]-pyrimidin-2-yl)amino)-2-fluoro-5-methoxyphenyl)(morpholino)methanone] |
| 7.94 | CCOc1nc(Nc2ccc(C(=O)N3CCN(C)CC3)cc2OC)nc2[nH]ccc12 [Example E3, (4-((4-ethoxy-7H-pyrrolo-[2,3-d]-pyrimidin-2-yl)amino)-3-methoxyphenyl)(4-methylpiperazin-1-yl)-methanone] |
| ≤ 10 | CCOc1nc(Nc2ccc(C(=O)N3CCC(N4CCN(C)CC4)CC3)cc2OC)nc2[nH]ccc12 [Example E4, (4-((4-ethoxy-7H-pyrrolo-[2,3-d]pyrimidin-2-yl)amino)-3-methoxyphenyl)(4-(4-methylpiperazin-1-yl)-piperidin-1-yl)-methanone] |
| ≤ 10 | CCOc1nc(Nc2ccc(C(=O)N3CCOCC3)cc2)nc2[nH]ccc12 [Example E9, (4-((4-ethoxy-7H-pyrrolo-[2,3-d]pyrimidin-2-yl)amino)phenyl)(morpholino)methanone] |
| ≤ 10 | CCOc1nc(Nc2ccc(C(=O)N3CCC4(CC3)CN(C)C4)cc2OC)nc2[nH]ccc12 [Example E13, (4-((4-ethoxy-7H-pyrrolo-[2,3-d]-pyrimidin-2-yl)amino)-3-methoxyphenyl)(2-methyl-2,7-diazaspiro-[3.5]-nonan-7-yl)methanone] |
| 15.8 | CCOc1nc(Nc2ccc(C(=O)N3CCC4(CC3)CC4)cc2OC)nc2[nH]ccc12 [Example E16, (4-((4-ethoxy-7H-pyrrolo-[2,3-d]-pyrimidin-2-yl)amino)-3-methoxyphenyl)(6-azaspiro-[2.5]octan-6-yl)methanone] |
| 10 | CCOc1cc(C(=O)N2CCOCC2)ccc1Nc1nc(OCC)c2cc[nH]c2n1 [Example E20, (3-ethoxy-4-((4-ethoxy-7H-pyrrolo-[2,3-d]pyrimidin-2-yl)amino)phenyl)(morpholino)methanone] |
| 10 | CCOc1nc(Nc2ccc(C(=O)N3CCN(C)CC3)cc2OC(C)C)nc2[nH]ccc12 [Example E24, (4-((4-ethoxy-7H-pyrrolo-[2,3-d]pyrimidin-2-yl)amino)-3-isopropoxyphenyl)(4-methylpiperazin-1-yl)methanone] |
| ≤ 10 | CCOc1nc(Nc2ccc(C(=O)N3CCOC[C@@H]3C)cc2OC)nc2[nH]ccc12 [Example E27, (S)-(4-((4-ethoxy-7H-pyrrolo-[2,3-d]pyrimidin-2-yl)amino)-3-methoxyphenyl)(3-methylmorpholino)methanone] |
| ≤ 10 | CCOc1nc(Nc2ccc(C(=O)N3CCN(C)CC3)cc2OC)nc2[nH]cc(C)c12 [Example E31, (4-((4-ethoxy-5-methyl-7H-pyrrolo-[2,3-d]pyrimidin-2-yl)amino)-3-methoxyphenyl)(4-methylpiperazin-1-yl)methanone] |
| 10 | CCOc1nc(Nc2ccc(C(=O)N3CCN(C)C[C@H]3C)cc2OC)nc2[nH]ccc12 [Example E40, (R)-(2,4-dimethylpiperazin-1-yl)(4-((4-ethoxy-7H-pyrrolo-[2,3-d]-pyrimidin-2-yl)-amino)-3-methoxyphenyl)methanone] |

| SMILES | IC50 [nM] |
| --- | --- |
| CCOc1nc(Nc2ccc(C(=O)N3CCOCC3)cc2OC)nc2[nH]ccc12 [Example E1, (4-((4-ethoxy-7H-pyrrolo-[2,3-d]-pyrimidin-2-yl)amino)-3-methoxyphenyl)(morpholino)methanone] | 12.6 |
